17 compounds from patent US11999727B2 (Tango Therapeutics, Inc., priority 2020, dated 2024) can be followed below.

The subject of test [1] is HAP1 MTAP-deleted cell line. Kind of test: SDMA in-cell western assay, HAP1 MTAP-deleted. The class given is cell-based. The note with it: for IC50: Homo sapiens, HAP1, SDMA in-cell western, HAP1 MTAP-deleted, read-out: HAP1 MTAP deleted IC50; for MTAP intact/deleted ratio: IC50 ratio HAP1 MTAP-intact / HAP1 MTAP-deleted, SDMA in-cell western. The procedure, abridged:
(§1)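 Compounds were tested in HAP1 cells differing only in MTAP status (endogenous expression versus null). Cellular SDMA levels were then measured by in-cell western, giving an IC50 in each background.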

For test [2], the target named is T1, PRMT5 (Homo sapiens, UniProt O14744).
T1 construct: purchased Viva (custom protein)
Briefly: PRMT5 biochemical IC50 assay with MTA as cofactor. The note with it: PRMT5, MTA as cofactor; read-out: MTA IC50.

Test [3] deals with HAP1 MTAP-deleted cell line. Kind of test: Viability assay, MTAP-deleted cell line. The format is cell-based. The note with it: Homo sapiens, HAP1, viability assay, HAP1 MTAP-deleted; read-out: HAP1 MTAP deleted viability. The source says: Table 1 additionally indicates IC50 values in a viability assay for the MTAP-deleted cell line (column 10), indicating the effect of treatment with compound on cell survival.

For test [4], the target named is T1, PRMT5. Briefly: PRMT5 biochemical IC50 assay with no cofactor. The note with it: PRMT5, no cofactor; read-out: No Cofactor/rel IC50. From the text:
Table 1 indicates IC50 values (μM) against PRMT5 for exemplary compounds in the presence of SAM as cofactor, with no cofactor, and with MTA as cofactor, respectively (columns 4-6). […] Ki values can be calculated from the IC50 values as described in the Examples section. As detailed in the Examples section, for the assay performed in the presence of SAM, IC50=Ki×1.5 (Ki=IC50/1.5).

For test [5], the target named is T1, PRMT5. Kind of test: PRMT5 biochemical IC50 assay with SAM as cofactor. The note with it: PRMT5, SAM as cofactor; read-out: SAM IC50.
The test system of test [6] is HAP1 MTAP-intact cell line. Briefly: SDMA in-cell western assay, HAP1 MTAP-intact. The class given is cell-based. The note with it: Homo sapiens, HAP1, SDMA in-cell western, HAP1 MTAP-intact; read-out: MTAP HAP1 intact IC50. The procedure, abridged: as §1

T1 sequence (O14744 whole entry): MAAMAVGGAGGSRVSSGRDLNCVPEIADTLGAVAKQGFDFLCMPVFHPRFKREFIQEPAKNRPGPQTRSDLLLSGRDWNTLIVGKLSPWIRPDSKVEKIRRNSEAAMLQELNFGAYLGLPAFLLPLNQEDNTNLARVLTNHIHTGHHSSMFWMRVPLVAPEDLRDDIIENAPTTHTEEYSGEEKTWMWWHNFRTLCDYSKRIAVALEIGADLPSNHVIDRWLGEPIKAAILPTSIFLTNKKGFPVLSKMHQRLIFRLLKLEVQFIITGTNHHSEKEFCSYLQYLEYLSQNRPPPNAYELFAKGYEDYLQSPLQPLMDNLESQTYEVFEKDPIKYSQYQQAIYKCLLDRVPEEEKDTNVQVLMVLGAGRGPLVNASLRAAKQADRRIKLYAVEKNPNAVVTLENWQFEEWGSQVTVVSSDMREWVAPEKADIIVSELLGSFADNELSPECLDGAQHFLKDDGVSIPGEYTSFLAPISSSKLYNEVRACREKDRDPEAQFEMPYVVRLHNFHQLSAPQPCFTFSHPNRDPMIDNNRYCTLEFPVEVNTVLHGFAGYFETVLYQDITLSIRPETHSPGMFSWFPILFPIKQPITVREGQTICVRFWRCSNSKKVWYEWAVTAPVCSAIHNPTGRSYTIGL
T1 sequence (Q9BQA1 whole entry partner): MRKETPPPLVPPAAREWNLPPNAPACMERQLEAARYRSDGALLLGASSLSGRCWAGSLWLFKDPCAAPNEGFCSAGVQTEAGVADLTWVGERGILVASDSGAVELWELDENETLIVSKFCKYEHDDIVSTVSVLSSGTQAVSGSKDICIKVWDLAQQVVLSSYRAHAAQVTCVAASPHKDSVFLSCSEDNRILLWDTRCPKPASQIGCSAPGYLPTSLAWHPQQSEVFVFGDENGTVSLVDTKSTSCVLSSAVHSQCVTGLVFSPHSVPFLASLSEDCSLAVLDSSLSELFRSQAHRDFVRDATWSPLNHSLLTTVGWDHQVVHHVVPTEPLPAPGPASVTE

As for `Cc1cc(NC(=O)C(=O)N2C[C@H](C)CC[C@H]2c2ccc(-c3nccs3)cc2)cnc1N` (single isomer, unassigned) [Compound 816], the IC50 in test [1] was greater than 1000 nM; at PRMT5 [2], greater than 500 nM; in test [3], greater than 10000 nM; on PRMT5 [4] it was greater than 500 nM; at PRMT5 [5], greater than 500 nM; in test [6] it was greater than 1000 nM. In addition, the MTAP intact/deleted ratio result in test [1] is “C (an IC50 ratio of less than 3 fold)”.

Consider `C[C@@H]1CC[C@@H](c2ccc(-c3cncs3)cc2)N(C(=O)C(=O)Nc2cncc(C(N)=O)c2)C1` (single isomer, unassigned) [Compound 817, 5-(2-(5-methyl-2-(4-(thiazol-5-yl)phenyl)piperidin-1-yl)-2-oxoacetamido)nicotinamide], for which the IC50 in test [1] is greater than 1000 nM; at PRMT5 [2] it was greater than 500 nM; in test [3] it was greater than 10000 nM; on PRMT5 [4], greater than 500 nM; on PRMT5 [5], greater than 500 nM; in test [6] it was greater than 1000 nM. Also, in test [1], the MTAP intact/deleted ratio entry is “C (an IC50 ratio of less than 3 fold)”.

For the compound `CCc1cc(NC(=O)C(=O)N2C[C@H](C)CC[C@H]2c2ccc3[nH]c(=O)ccc3c2)cnc1N` (single isomer, unassigned) [Compound 819], the IC50 in test [1] is 100 to 1000 nM; at PRMT5 [2], greater than 500 nM; in test [3] it was 1000 to 10000 nM; at PRMT5 [4] it was greater than 500 nM; at PRMT5 [5] it was greater than 500 nM; in test [6], greater than 1000 nM. The MTAP intact/deleted ratio result in test [1] is recorded as “A (an IC50 ratio greater than or equal to 10 fold)”.

Regarding `Cc1cc(NC(=O)C(=O)N2C[C@@H](C)CC[C@@H]2c2ccc(-c3nccs3)cc2)cnc1N` (single isomer, unassigned) [Compound 820], the IC50 is less than 100 nM in test [1]; less than 50 nM on PRMT5 [2]; less than 1000 nM in test [3]; 50 to 500 nM at PRMT5 [4]; 50 to 500 nM at PRMT5 [5]; 100 to 1000 nM in test [6]. The MTAP intact/deleted ratio entry in test [1] is given as “B (an IC50 ratio greater than or equal to 3 fold but lower than 10 fold)”.

As for `C[C@H]1CC[C@H](c2ccc(-c3cncs3)cc2)N(C(=O)C(=O)Nc2cncc(C(N)=O)c2)C1` (single isomer, unassigned) [Compound 821, 5-(2-(5-methyl-2-(4-(thiazol-5-yl)phenyl)piperidin-1-yl)-2-oxoacetamido)nicotinamide], the IC50 in test [1] was less than 100 nM; on PRMT5 [2], less than 50 nM; in test [3], 1000 to 10000 nM; on PRMT5 [4] it was 50 to 500 nM; on PRMT5 [5], 50 to 500 nM; in test [6], greater than 1000 nM. In addition, in test [1], the MTAP intact/deleted ratio entry is reported as “A (an IC50 ratio greater than or equal to 10 fold)”.

For the compound `CCc1cc(NC(=O)C(=O)N2C[C@@H](C)CC[C@@H]2c2ccc(-c3nccs3)cc2)cnc1N` (single isomer, unassigned) [Compound 822], the IC50 is greater than 1000 nM in test [1]; greater than 500 nM on PRMT5 [2]; greater than 10000 nM in test [3]; greater than 500 nM at PRMT5 [4]; greater than 500 nM on PRMT5 [5]; greater than 1000 nM in test [6]. Besides, in test [1], the MTAP intact/deleted ratio result was “C (an IC50 ratio of less than 3 fold)”.

Take `Cc1cc(NC(=O)C(=O)N2C[C@H](C)CC[C@H]2c2ccc(C(N)=O)s2)cnc1N` (single isomer, unassigned) [Compound 823]: the IC50 in test [1] was greater than 1000 nM; on PRMT5 [2], greater than 500 nM; in test [3], greater than 10000 nM; on PRMT5 [4] it was greater than 500 nM; at PRMT5 [5], greater than 500 nM; in test [6], greater than 1000 nM. In test [1], the MTAP intact/deleted ratio entry is recorded as “C (an IC50 ratio of less than 3 fold)”.

Turning to `Cc1cc(NC(=O)C(=O)N2C[C@@H](C)CC[C@@H]2c2cc3[nH]ncc3s2)cnc1N` (single isomer, unassigned) [Compound 824], the IC50 was less than 100 nM in test [1]; less than 50 nM at PRMT5 [2]; less than 1000 nM in test [3]; less than 50 nM at PRMT5 [4]; 50 to 500 nM on PRMT5 [5]; 100 to 1000 nM in test [6]. Moreover, the MTAP intact/deleted ratio result in test [1] is reported as “A (an IC50 ratio greater than or equal to 10 fold)”.

Regarding `CCc1cc(NC(=O)C(=O)N2C[C@@H](C)CC[C@@H]2c2ccc3[nH]c(=O)ccc3c2)cnc1N` (single isomer, unassigned) [Compound 825], the IC50 in test [1] is less than 100 nM; on PRMT5 [2], less than 50 nM; in test [3] it was less than 1000 nM; on PRMT5 [4], less than 50 nM; on PRMT5 [5], 50 to 500 nM; in test [6], 100 to 1000 nM. Moreover, the MTAP intact/deleted ratio result in test [1] is listed as “A (an IC50 ratio greater than or equal to 10 fold)”.

`Cc1cc(NC(=O)C(=O)N2C[C@H](C)CC[C@H]2c2cc3[nH]ncc3s2)cnc1N` (single isomer, unassigned) [Compound 826]: the IC50 was greater than 1000 nM in test [1]; 50 to 500 nM on PRMT5 [2]; greater than 10000 nM in test [3]; greater than 500 nM on PRMT5 [4]; greater than 500 nM on PRMT5 [5]; greater than 1000 nM in test [6]. Also, the MTAP intact/deleted ratio result in test [1] is listed as “B (an IC50 ratio greater than or equal to 3 fold but lower than 10 fold)”.

As for `CCc1cc(NC(=O)C(=O)N2C[C@@H](C)CC[C@@H]2c2ccc(-c3cncs3)cc2)cnc1N` (single isomer, unassigned) [Compound 827, N-(6-amino-5-ethylpyridin-3-yl)-2-(5-methyl-2-(4-(thiazol-5-yl)phenyl)piperidin-1-yl)-2-oxoacetamide], the IC50 is 100 to 1000 nM in test [1]; 50 to 500 nM on PRMT5 [2]; greater than 10000 nM in test [3]; greater than 500 nM on PRMT5 [4]; greater than 500 nM on PRMT5 [5]; greater than 1000 nM in test [6]. In test [1], the MTAP intact/deleted ratio entry is recorded as “A (an IC50 ratio greater than or equal to 10 fold)”.

In the case of `CNC(=O)c1ccc([C@@H]2CC[C@@H](C)CN2C(=O)C(=O)Nc2cncc(C(N)=O)c2)s1` (single isomer, unassigned) [Compound 829], the IC50 is less than 100 nM in test [1]; less than 50 nM at PRMT5 [2]; 1000 to 10000 nM in test [3]; less than 50 nM at PRMT5 [4]; 50 to 500 nM at PRMT5 [5]; greater than 1000 nM in test [6]. The MTAP intact/deleted ratio entry in test [1] is “A (an IC50 ratio greater than or equal to 10 fold)”.

Turning to `COc1ncc(NC(=O)C(=O)N2C[C@H](C)CC[C@H]2c2ccc(-c3cncs3)cc2)cc1C(N)=O` (single isomer, unassigned) [Compound 830, 2-methoxy-5-(2-(5-methyl-2-(4-(thiazol-5-yl)phenyl)piperidin-1-yl)-2-oxoacetamido)nicotinamide], the IC50 in test [1] is less than 100 nM; on PRMT5 [2] it was less than 50 nM; in test [3], less than 1000 nM; at PRMT5 [4], 50 to 500 nM; at PRMT5 [5], 50 to 500 nM; in test [6], greater than 1000 nM. The MTAP intact/deleted ratio result in test [1] is recorded as “A (an IC50 ratio greater than or equal to 10 fold)”.

`CNC(=O)c1ccc([C@H]2CC[C@H](C)CN2C(=O)C(=O)Nc2cnc(OC)c(C(N)=O)c2)s1` (single isomer, unassigned) [Compound 833]: the IC50 in test [1] is less than 100 nM; at PRMT5 [2], less than 50 nM; in test [3], less than 1000 nM; on PRMT5 [4], 50 to 500 nM; at PRMT5 [5], 50 to 500 nM; in test [6], 100 to 1000 nM. For the same compound, the MTAP intact/deleted ratio entry in test [1] is given as “A (an IC50 ratio greater than or equal to 10 fold)”.

Turning to `C[C@@H]1CC[C@@H](c2cc(F)c(F)c(Cl)c2)N(C(=O)C(=O)Nc2cncc(C(N)=O)c2)C1` (single isomer, unassigned) [Compound 834], the IC50 in test [1] was 100 to 1000 nM; on PRMT5 [2], less than 50 nM; in test [3], 1000 to 10000 nM; at PRMT5 [4] it was 50 to 500 nM; on PRMT5 [5], 50 to 500 nM; in test [6] it was greater than 1000 nM. Besides, the MTAP intact/deleted ratio entry in test [1] is reported as “A (an IC50 ratio greater than or equal to 10 fold)”.

Take `CCc1cc(NC(=O)C(=O)N2C[C@H](C)CC[C@H]2c2ccc(C(=O)NC)s2)cnc1N` (single isomer, unassigned) [Compound 835]: the IC50 in test [1] is greater than 1000 nM; on PRMT5 [2] it was greater than 500 nM; in test [3], greater than 10000 nM; at PRMT5 [4] it was greater than 500 nM; on PRMT5 [5] it was greater than 500 nM; in test [6], greater than 1000 nM. The MTAP intact/deleted ratio entry in test [1] is given as “C (an IC50 ratio of less than 3 fold)”.

For `COc1ncc(NC(=O)C(=O)N2C[C@@H](C)CC[C@@H]2c2ccc(C(N)=O)s2)cc1C(N)=O` (single isomer, unassigned) [Compound 837], the IC50 was less than 100 nM in test [1]; less than 50 nM on PRMT5 [2]; less than 1000 nM in test [3]; less than 50 nM on PRMT5 [4]; 50 to 500 nM at PRMT5 [5]; greater than 1000 nM in test [6]. For the same compound, the MTAP intact/deleted ratio result in test [1] is “A (an IC50 ratio greater than or equal to 10 fold)”.
